For one test, the system named is MDA-MB468 cells. The test is described as follows: Mammosphere formation in suspension culture, MDA-MB468. The test is classed as cell-based. The settings on record: MDA-MB468, 500 nM, 10 days, versus vehicle. As to the method:
(§1) Since SHP2 is essential for the growth and transformation of BC cells,[8],[9],[11] we determined the effect of SHP2 inhibition with CNBCA in 2D and 3D culture systems. For the effect on cell growth, BC cells (BT474 and MDA-MB468) were seeded in 2D culture and treated with a single concentration of CNBCA (500 nM), the concentration that provided a 50% inhibition of SHP2 mediated signaling in BT474 cells. Images were collected at the start and every 24 h for a total of 72 h (3 days). […] For effect on anchorage independent growth, approximately 10^6 cells were seeded in soft agar as described previously,[24] and treated with CNBCA at 500 nM concentration for 10 days with refeeding and adjustment of compound concentration. […] Finally, the effect of CNBCA on cancer stem cell properties was determined by the suspension assay, in which only cells with stem-like properties only can grow and form mammospheres.[7],[24],[36] Approximately 10^6 cells were seeded in nonadherent 6 cm plates and treated with CNBCA (500 nM) for 10 days with complementation of media and drug concentration.
(§2) To further evaluate the anti-breast cancer cell effect of CNBCA, we treated cells seeded in a suspension culture known as the mammosphere assay. In this assay, cells with cancer stem cell properties can grow and form sphere-like cellular aggregates known as mammospheres.[7],[38] […]

A further test relates to BT474 cells. Briefly: Mammosphere formation in suspension culture, BT474. Type of test: cell-based. To be noted: BT474, 500 nM, 10 days, versus vehicle. As to the method: as §1, §2
Another test has as its target T1, PTP1B (Homo sapiens, UniProt P18031).
T1 construct: The GST fusion PTP domains of SHP1 and PTP1B were expressed and purified in a fashion similar to that of SHP2; GST; made in house
T1 sequence (P18031 3-277 limits assumed): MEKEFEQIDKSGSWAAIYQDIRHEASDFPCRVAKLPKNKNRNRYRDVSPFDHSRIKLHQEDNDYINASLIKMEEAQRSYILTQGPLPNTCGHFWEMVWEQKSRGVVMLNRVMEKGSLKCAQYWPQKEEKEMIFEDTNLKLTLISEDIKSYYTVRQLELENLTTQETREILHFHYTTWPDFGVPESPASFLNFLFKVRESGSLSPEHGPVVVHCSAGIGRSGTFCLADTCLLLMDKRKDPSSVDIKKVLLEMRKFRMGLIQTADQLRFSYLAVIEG
The test is described as follows: PTPase assay, GST-fusion PTP domain of PTP1B, DiFMUP substrate. The test is classed as biochemical. As to the method:
After completion of synthesis, both CNBCA and CNBBA were purified on silica gel, and purity was determined by HPLC. The purified compounds were then tested for their effect on the SHP2 enzyme activity and on the activity of the selected control PTPs (SHP1 and PTP1B) by the phosphotyrosyl phosphatase (PTPase) assay as described previously.[30],[31] First, the GST fusion of the PTP domains of SHP2, SHP1, and PTP1B were produced and purified as reported by us previously.[32] The reactions were performed in a buffer containing 10 mM Tris-HCl (pH 7.2), 100 mM NaCl, 1 mM EDTA, 1 mM dithiothreitol (DTT), and 0.01% Tween-20. […] The complete mixture was incubated at 37 °C for 20 min, and fluorescence intensity was measured by the Synergy 4 plate reader at the excitation and emission wavelengths of 360 and 460 nm, respectively. The half inhibitory concentration (IC50) value of each compound was calculated and plotted using Graphpad Prism software. […]
We used the PTPase assay described previously[30],[31] to evaluate the effect of the newly synthesized compounds on the enzymatic activity of SHP2, SHP1, and PTP1B. […] The mixtures were incubated at 37 °C for 20 min and transferred to 96 well plates, and the fluorescence intensity was measured by a Synergy 4 plate reader at the excitation and emission wavelengths of 360 and 460 nm, respectively. […]

For orientation: IC50 means the midpoint of a concentration-inhibition curve. On to `CCCCCCCCCOc1ccc(-c2ccc(C(=O)O)cc2)cc1CCCC(=O)O` [CNBCA, 3′-(3-carboxypropyl)-4′-(nonyloxy)-[1,1′-biphenyl]-4-carboxylic acid], for which the mammosphere formation entry in the test on MDA-MB468 cells is “fewer and smaller mammospheres”; in the test with BT474 cells, “fewer and smaller mammospheres”. At PTP1B (PTP domain, 1 nM enzyme, 10 μM DiFMUP), the IC50 worked out at 25 µM. In addition, the “selectivity ratio PTP1B versus SHP2” value at PTP1B (SHP2 IC50 as reference) was 28.73 fold.

The values are drawn from PMC10591299, “Targeting SHP2 with an Active Site Inhibitor Blocks Signaling and Breast Cancer Cell Phenotypes” (ACS Bio & Med Chem Au, 2023).
